Source: paper PMC8911181, “A Novel CDK4/6 and PARP Dual Inhibitor ZC-22 Effectively Suppresses Tumor Growth and Improves the Response to Cisplatin Treatment in Breast and Ovarian Cancer” (International Journal of Molecular Sciences, 2022)

What was measured:
[1] = tested on: CDK4/6-mediated phosphorylation of Rb; test: Western blot of p-Rb/Rb; assay type: cell-based, human; settings: MDA-MB-231 (2 μM) and OVCAR5 (0.5 μM) cells, 24 h
Experimental: Cells were washed with PBS, collected with scraper, and then lysed in RIPA buffer containing 1× protease and phosphatase inhibitors for 30 min on ice. The supernatants were collected by centrifugation at full speed for 10 min at 4 °C and subjected to SDS-PAGE followed by immunoblotting as described before. Signals were detected using enhanced chemiluminescence (Millipore, Burlington, MA, USA) and captured by the G: BOX Chemi XRQ gel doc System (Syngene, Cambridge, UK).
(§1) Figure 3 ZC-22 inhibits CDK4/6 and PARP to induce cell-cycle arrest, DNA damage, and apoptosis in breast and ovarian cancer cells. (A,B) MDA-MB-231 cells were treated with 2 μM LY2835219 (LY-2) or ZC-22. […] The levels of CDK4/6 and p-Rb/Rb were determined by Western blot (A). Cell-cycle distribution was analyzed by flow cytometry (B). […] (D,E) Representative pictures (left) and quantification of percentage (right) of γH2A.X-positive cells in MDA-MB-231 cells treated with 2 μM OLA or ZC-22 for 24 h (D), or OVCAR5 cells treated with 0.5 μM OLA or ZC-22 for 24 h (E). Values are means ± SD, n = 3. * p < 0.05, ** p < 0.01, and *** p < 0.001 for comparisons with the DMSO-treated group. p value was calculated using an unpaired t-test. […] Values are means ± SD, n = 3. * p < 0.05, ** p < 0.01, and *** p < 0.001 vs. the DMSO-treated group. p value was calculated using an unpaired t-test. […]

[2] = tested on: MDA-MB-231 and OVCAR5 cells; test: PI-based cell-cycle analysis by flow cytometry; set-up: species or system human; settings: MDA-MB-231 (2 μM) and OVCAR5 (0.5 μM) cells; 24 h
Experimental: MDA-MB-231 cells were treated with 2 μM LY2835219 or ZC-22, and OVCAR5 cells were treated with 0.5 μM LY2835219 or ZC-22 for 24 h. After washing in PBS, cells were fixed with 70% ethanol on ice for 2 h, followed by centrifugation at 300× g—for 20 min at 4 °C, and then subjected to a propidium iodide (PI, BD Biosciences, Franklin Lakes, NJ, USA) based cell-cycle analysis according to the manufacturer’s protocols. Cell-cycle distribution was analyzed by flow cytometry. Each experiment was performed in triplicates.
Figure 3 ZC-22 inhibits CDK4/6 and PARP to induce cell-cycle arrest, DNA damage, and apoptosis in breast and ovarian cancer cells. […] The levels of CDK4/6 and p-Rb/Rb were determined by Western blot (A). Cell-cycle distribution was analyzed by flow cytometry (B). […] (D,E) Representative pictures (left) and quantification of percentage (right) of γH2A.X-positive cells in MDA-MB-231 cells treated with 2 μM OLA or ZC-22 for 24 h (D), or OVCAR5 cells treated with 0.5 μM OLA or ZC-22 for 24 h (E). Values are means ± SD, n = 3. * p < 0.05, ** p < 0.01, and *** p < 0.001 for comparisons with the DMSO-treated group. p value was calculated using an unpaired t-test. (F,G) Representative pictures (F) and quantification of percentage (G) of apoptotic cells in MDA-MB-231 cells treated with 2 μM LY-2, OLA, or ZC-22 for 48 h or in OVCAR5 cells treated with 0.5 μM LY-2, OLA or ZC-22 for 48 h. […]

γH2A.X = test: Immunofluorescence staining of γH2A.X foci; assay type: cell-based, human; settings: MDA-MB-231 (2 μM) and OVCAR5 (0.5 μM) cells; 24 h
Experimental: Immunofluorescence-staining of γH2A.X was performed as described before. Briefly, cells were seeded on cover glasses in 24-well plates, cultured for 24–48 h, and then treated with cisplatin alone or together with Olaparib or ZC-22 for 24 h. After washing with PBS, cells were fixed by 4% PFA, permeated with 0.5% Triton-X100 in PBS, washed thrice with 0.1% PBS-Tween (PBST), blocked with 3% BSA in PBST, and then incubated with anti-γH2A.X antibody overnight at 4 °C. […] At least 150 cells in three fields were counted for each repeat.
as §1, with “cells.” for “cells. (A,B) MDA-MB-231 cells were treated with 2 μM LY2835219 (LY-2) or ZC-22.”

| SMILES | inhibitory activity on CDK4/6-mediated phosphorylation of Rb [1] | cell-cycle distribution [2] | formation of γH2A.X foci (γH2A.X) |
| --- | --- | --- | --- |
| CCN1CCN(Cc2ccc(Nc3ncc(F)c(-c4cc(F)c5nc(C)n(C(C)C)c5c4)n3)nc2)CC1 [LY2835219, Abemaciclib, reference compound] | equal inhibitory activity |  |  |
| Cc1nc2c(F)cc(-c3nc(Nc4ccc(N5CCN(C(=O)c6cc(Cc7n[nH]c(=O)c8ccccc78)ccc6F)CC5)cn4)ncc3F)cc2n1C(C)C [ZC-22, 4-(4-fluoro-3-(4-(6-((5-fluoro-4-(4-fluoro-1-isopropyl-2-methyl-1H-benzo[d]imidazole-6-yl)pyrimidin-2-yl)amino)pyridin-3-yl)piperazine-1-carbonyl)benzyl)phthalazin-1(2H)-one] | equal inhibitory activity | dramatically arrested cell cycle at the G1/S check-point | notably induced formation of γH2A.X foci |
